Where “and” joins values, the source holds several entries; their conditions need not be identical. Equal entries are not always repeated. Peptide text beside a SMILES is read from it. * marks the point of attachment. Cbz = O=C(OCc1ccccc1)*
Test system: Mycobacterium tuberculosis growth in 7H9 media
Assay: M. tuberculosis growth inhibition in 7H9, dose response, 7H9 media, purified and synthesized samples, set 3 (AID 504646)
Details: for IC90: 90% growth inhibition concentration

SMILES	IC50	IC90
CC(C)CCNC(=O)CSc1nc2ccccc2c(=O)[nH]1	1190 nM	2350 nM
Cc1nc(SCC(=O)NC2CCCCC2)[nH]c(=O)c1C	340 nM and 1860 nM	830 nM and 3170 nM
CC1CCN(C(=O)C2CCN(c3nnc(-n4cccc4)s3)CC2)CC1	1550 nM	2910 nM
O=C1C(Br)=Cc2cccc3cccc1c23	160 nM	790 nM
CCOC(=O)CSc1ncnc2c1cnn2-c1ccccc1	11200 nM	> 25000 nM
CCOC1OC(=O)C(Cl)=C1Nc1ccccc1C (stereo unspecified)	2310 nM	> 25000 nM
CCc1c(C)nc(SCC(=O)Nc2ccc3c(c2)OCCO3)[nH]c1=O	14100 nM	> 25000 nM
COC(=O)C(C)Oc1ccc(Cc2ncc(C(F)(F)F)cc2Cl)cc1 (stereo unspecified)	2660 nM	4350 nM
COC(=O)C(C)Sc1ncnc2c1nnn2-c1ccc(F)cc1 (stereo unspecified)	1880 nM	4640 nM
c1ccc(/N=C2\N=C(Nc3ccccn3)c3ccccc32)nc1	160 nM	250 nM
CCOC(=O)c1ccc(NC(=O)Cn2ncc(Cl)c(Cl)c2=O)cc1	330 nM	1200 nM
O=C(c1ccc(CNc2c(N3CCCC3)c(=O)c2=O)cc1)N1CC=C(c2ccccc2)CC1	2310 nM	> 25000 nM
CC(=NCc1ccc2c(c1)OCO2)C1=C(O)c2ccccc2C1=O	950 nM	> 25000 nM
Cc1cccc(N2CCN(C(=O)c3ccc(CNc4c(N5CCC(C)CC5)c(=O)c4=O)cc3)CC2)c1C	24500 nM	> 25000 nM
COC(=O)c1cc(=O)n(-c2ccc(F)cc2)c(=Nc2ccc(F)cc2)s1	360 nM	1180 nM
CC(C)OC(=O)CSc1ncnc2c1cnn2-c1ccccc1	10500 nM	> 25000 nM
Cc1nn2c(NCc3ccccn3)cc(C(C)C)nc2c1-c1ccccc1	1220 nM	1730 nM
COc1ccc(N2CCN(C(=O)c3ccc(CNc4c(N5CCOCC5)c(=O)c4=O)cc3)CC2)cc1	2160 nM	> 25000 nM
O=C(c1ccc(CNc2c(N3CCCC3)c(=O)c2=O)cc1)N1CCN(C2CCCCC2)CC1	–	> 25000 nM
Nc1c(C(=O)NC2CCCCC2)nsc1C(=O)OCC(=O)NC1CCCCC1	1110 nM	2460 nM
O=C(NCCc1ccc(Cl)cc1)c1ccc(CNc2c(N3CCOCC3)c(=O)c2=O)cc1	4710 nM	6880 nM
CC1CCCN(C(=O)c2ccc(CNc3c(N4CCCCC4)c(=O)c3=O)cc2)C1 (stereo unspecified)	1390 nM	> 25000 nM

SMILES	IC50	IC90
CCC(C)Nc1ccc(NC(C)CC)cc1 (stereo unspecified)	610 nM	980 nM
O=C(NCC1COc2ccccc2O1)C1CCC(CNc2c(N3CCCCC3)c(=O)c2=O)CC1 (stereo unspecified)	–	> 25000 nM
Cc1cc(Br)ccc1NC(=O)c1cnc(N2CCN(c3ccccn3)CC2)c2ccccc12	280 nM	2610 nM
O=C(CSc1nc2c(c(=O)[nH]1)CCC2)Nc1ccc(F)cc1	10000 nM	17100 nM
CC1CC(C)CN(C(=O)C2CCC(CNc3c(N4CCCCC4)c(=O)c3=O)CC2)C1 (stereo unspecified)	7760 nM	> 25000 nM
CC[N+](C)(CC)CCCCOc1ccc2c(c1)C(=O)c1cc(OCCCC[N+](C)(CC)CC)ccc1-2	1420 nM	1980 nM
Cc1ccc2ccc3ccc(C)nc3c2n1	180 nM	480 nM
CCOC(=O)CSc1ncnc2c1nnn2-c1ccc(F)cc1	2460 nM	4350 nM
S=c1nc[nH]c2nc[nH]c12	1380 nM	1960 nM
O=C(/C=C\c1cccs1)N1CCN(Cc2ccc3c(c2)OCO3)CC1	940 nM	> 25000 nM
Cc1cccc(-c2oc3ccc(-c4ccc5c(c4)OCO5)cc3c2C#Cc2cncn2C)c1	1780 nM	2690 nM
CNc1nc(SCc2ccccc2Cl)nc2c1CCCC2	1150 nM	3010 nM
CCc1ccc(/C=C2/C(=O)N(C)C(=S)N2CC(=O)OC)s1	1120 nM	4630 nM
COC(=O)C1CC(=O)N(c2ccc(OCc3ccccc3Cl)cc2)C1 (stereo unspecified)	470 nM	2740 nM
Cc1ccc2c(c1)c(C1=c3ccccc3=NC1=O)c(O)n2C	840 nM	3120 nM
Cc1ccc(NC(=O)C2C3/C=C\CCCCC32)cc1C (stereo unspecified)	1430 nM	> 25000 nM
O=C(NCC(c1cccs1)N1CCOCC1)c1cc([N+](=O)[O-])cc([N+](=O)[O-])c1 (stereo unspecified)	210 nM	580 nM
Cc1ccc(NC(=O)COC(=O)CCc2c[nH]c3ccccc23)cc1[N+](=O)[O-]	1160 nM	4230 nM
CCC(Sc1ncnc2c1nnn2-c1ccc(F)cc1)C(=O)OC (stereo unspecified)	9590 nM	> 25000 nM
CC1CCCN(C(=O)C2CCC(CNc3c(N4CCCCC4)c(=O)c3=O)CC2)C1 (stereo unspecified)	11500 nM	> 25000 nM
COC(=O)C(C)Oc1ccc(-c2nccc(-c3ccccn3)n2)cc1 (stereo unspecified)	2110 nM	4130 nM
CCOC(=O)CNC(=O)[C@H](Cc1ccccc1)NC(=O)OCc1ccccc1 (Cbz-Phe-Gly-OEt)	1060 nM	2960 nM

SMILES	IC50	IC90
CC1CCN(C(=O)c2ccc(CNc3c(N4CCCC4)c(=O)c3=O)cc2)CC1	5810 nM	6650 nM
COc1ccc(-n2nnc3c(SCC(=O)OCc4ccccc4)ncnc32)cc1	1630 nM	> 25000 nM
O=C(NCCc1ccc(Cl)cc1)C1CCC(CNc2c(N3CCCCC3)c(=O)c2=O)CC1 (stereo unspecified)	20400 nM	> 25000 nM
CCOc1ccc(NC(=O)CSc2nc(O)c(C)c(=O)n2-c2ccc(F)cc2)cc1	18600 nM	> 25000 nM
CCOC(=O)COn1c2c(c3c4no[n+]([O-])c4ccc31)CCCC2	1960 nM	3170 nM
CC(C)NC(=O)c1sc(=S)n2c1[nH]c(=O)c1ccc(C(=O)NCCc3ccc(Cl)cc3)cc12	110 nM	300 nM
O=C(c1ccc(CNc2c(N3CCOCC3)c(=O)c2=O)cc1)N1CC=C(c2ccccc2)CC1	660 nM	830 nM
CCOC(=O)CSc1ncnc2c1cnn2-c1ccc(Cl)cc1	4320 nM	> 25000 nM
CCOC(=O)CSc1ncnc2c1cnn2-c1ccc(C)cc1	6950 nM	> 25000 nM
CCOC(=O)CSc1ncnc2c1cnn2-c1ccc(C)cc1C	4630 nM	7470 nM
Cc1nc(SCC(=O)NC2CCCC2)[nH]c(=O)c1C	7970 nM	13400 nM
O=C(CSc1nc2ccccc2c(=O)[nH]1)NC1CCCCC1	40 nM	80 nM
COc1cc(NC(=O)C/C(C)=N/NC(=O)c2ccccn2)c(OC)cc1Cl	1650 nM	4490 nM
Cc1cccc(/C=C/C(=O)c2ccc([N+](=O)[O-])o2)c1	100 nM	170 nM
COC(=O)CCc1nc2c(C#N)c(-c3ccc(Cl)cc3)ccn2n1	2580 nM	3660 nM
CCOC(=O)C(C)Sc1ncnc2c1nnn2-c1ccc(F)cc1 (stereo unspecified)	850 nM and 3120 nM	3420 nM and 8230 nM
O=C(CSc1nc2ccccc2c(=O)[nH]1)NCc1ccc(Cl)cc1	380 nM and 1300 nM	670 nM and 2020 nM
Cc1ccc(C(=O)N/N=C(/CC(=O)c2cccs2)C(F)(F)F)cc1	1560 nM	2370 nM
O=C(c1ccc(CNc2c(N3CCCC3)c(=O)c2=O)cc1)N1CCc2ccccc2C1	3620 nM	5790 nM
Cc1cc(C)n2nc(N)c(N=Nc3ccccc3)c2n1	2730 nM	3690 nM

Source: PubChem BioAssay AID504646 (Southern Research Specialized Biocontainment Screening …, 2011)
